Measurements taken from PubChem BioAssay AID270 (DTP/NCI, 2004).
Where “and” joins values, the source holds several entries; their conditions need not be identical. Equal values may be shown once. Results filed as inconclusive are left out.

Tested on: BDF1 mice, s.c. Lewis lung carcinoma, T/C %
Test: NCI In Vivo Anticancer Drug Screen. Data for tumor model Lewis Lung Carcinoma (subcutaneous) in B6D2F1 (BDF1) mice
Summary of the method: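 First, mice carry a transplantable tumor. Next, groups receive either compound or vehicle. Finally, survival or tumor dimensions in the dosed animals are divided by the corresponding control figure.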

[1] = endpoint: mean tumor weight, dose: 100.0 mg/kg/injection, schedule: Q01DX011 (ip), vehicle: carboxymethylcellulose (CMC), higher = larger tumour

O=NN(CCCl)C(=O)NC1CCCCC1
T/C (endpoint: median survival time, dose: 0.12 mg/kg/injection, schedule: Q08HX024 (ip), vehicle: Klucel (hydroxypropylcellulose) (HPC), higher = longer survival): 91 % of control
T/C (endpoint: median survival time, dose: 0.12 mg/kg/injection, schedule: Q08HX024 (ip), vehicle: saline, higher = longer survival): 181 % of control
T/C (endpoint: median survival time, dose: 0.25 mg/kg/injection, schedule: Q08HX024 (ip), vehicle: Klucel (hydroxypropylcellulose) (HPC), higher = longer survival): 106 % of control and 111 % of control
T/C (endpoint: median survival time, dose: 0.25 mg/kg/injection, schedule: Q08HX024 (ip), vehicle: saline, higher = longer survival): 182 % of control
T/C (endpoint: median survival time, dose: 0.5 mg/kg/injection, schedule: Q08HX024 (ip), vehicle: Klucel (hydroxypropylcellulose) (HPC), higher = longer survival): 103 % of control and 115 % of control
T/C (endpoint: median survival time, dose: 0.5 mg/kg/injection, schedule: Q08HX024 (ip), vehicle: saline, higher = longer survival): 103 % of control
T/C (endpoint: median survival time, dose: 1.0 mg/kg/injection, schedule: Q08HX024 (ip), vehicle: Klucel (hydroxypropylcellulose) (HPC), higher = longer survival): 119 % of control
T/C (endpoint: median survival time, dose: 1.0 mg/kg/injection, schedule: Q08HX024 (ip), vehicle: saline, higher = longer survival): 91 % of control
T/C (endpoint: median survival time, dose: 2.4 mg/kg/injection, schedule: Q01DX001 (ip), vehicle: other, higher = longer survival): 120 % of control
T/C (endpoint: median survival time, dose: 4.0 mg/kg/injection, schedule: Q01DX009 (ip), vehicle: saline with Tween-80, higher = longer survival): 112 % of control
T/C (endpoint: median survival time, dose: 4.7 mg/kg/injection, schedule: Q01DX001 (ip), vehicle: other, higher = longer survival): 109 % of control
T/C (endpoint: median survival time, dose: 5.0 mg/kg/injection, schedule: Q01DX001 (ip), vehicle: Klucel (hydroxypropylcellulose) (HPC), higher = longer survival): 95 % of control and 106 % of control and 123 % of control
T/C (endpoint: median survival time, dose: 8.0 mg/kg/injection, schedule: Q01DX009 (ip), vehicle: saline with Tween-80, higher = longer survival): 120 % of control
T/C (endpoint: median survival time, dose: 9.5 mg/kg/injection, schedule: Q01DX001 (ip), vehicle: other, higher = longer survival): 105 % of control
T/C (endpoint: median survival time, dose: 10.0 mg/kg/injection, schedule: Q01DX001 (ip), vehicle: Klucel (hydroxypropylcellulose) (HPC), higher = longer survival): 86 % of control and 91 % of control and 111 % of control
T/C (endpoint: median survival time, dose: 12.5 mg/kg/injection, schedule: Q01DX001 (ip), vehicle: Klucel (hydroxypropylcellulose) (HPC), higher = longer survival): 93 % of control and 113 % of control
T/C (endpoint: median survival time, dose: 12.5 mg/kg/injection, schedule: Q01DX001 (ip), vehicle: saline with Tween-80, higher = longer survival): 158 % of control
T/C (endpoint: median survival time, dose: 18.9 mg/kg/injection, schedule: Q01DX001 (ip), vehicle: other, higher = longer survival): 150 % of control
T/C (endpoint: median survival time, dose: 20.0 mg/kg/injection, schedule: Q01DX001 (ip), vehicle: Klucel (hydroxypropylcellulose) (HPC), higher = longer survival): 97 % of control and 115 % of control
T/C (endpoint: median survival time, dose: 25.0 mg/kg/injection, schedule: Q01DX001 (ip), vehicle: Klucel (hydroxypropylcellulose) (HPC), higher = longer survival): 108 % of control
T/C (endpoint: median survival time, dose: 27.0 mg/kg/injection, schedule: Q11DX002 (ip), vehicle: Klucel (hydroxypropylcellulose) (HPC), higher = longer survival): 111 % of control
T/C (endpoint: median survival time, dose: 32.0 mg/kg/injection, schedule: Q01DX009 (ip), vehicle: Klucel (hydroxypropylcellulose) (HPC), higher = longer survival): 94 % of control
T/C (endpoint: median survival time, dose: 33.0 mg/kg/injection, schedule: Q01DX001 (ip), vehicle: carboxymethylcellulose (CMC), higher = longer survival): 102 % of control
T/C (endpoint: median survival time, dose: 33.0 mg/kg/injection, schedule: Q06DX002 (ip), vehicle: carboxymethylcellulose (CMC), higher = longer survival): 180 % of control
T/C (endpoint: median survival time, dose: 33.0 mg/kg/injection, schedule: Q08DX002 (ip), vehicle: carboxymethylcellulose (CMC), higher = longer survival): 100 % of control
T/C (endpoint: median survival time, dose: 33.0 mg/kg/injection, schedule: Q12DX002 (ip), vehicle: carboxymethylcellulose (CMC), higher = longer survival): 102 % of control
T/C (endpoint: median survival time, dose: 37.8 mg/kg/injection, schedule: Q01DX001 (ip), vehicle: other, higher = longer survival): 160 % of control
T/C (endpoint: median survival time, dose: 40.0 mg/kg/injection, schedule: Q11DX002 (ip), vehicle: Klucel (hydroxypropylcellulose) (HPC), higher = longer survival): 79 % of control and 97 % of control
T/C (endpoint: median survival time, dose: 40.0 mg/kg/injection, schedule: Q11DX002 (oral), vehicle: Klucel (hydroxypropylcellulose) (HPC), higher = longer survival): 86 % of control
T/C (endpoint: median survival time, dose: 50.0 mg/kg/injection, schedule: Q01DX001 (ip), vehicle: Klucel (hydroxypropylcellulose) (HPC), higher = longer survival): 67 % of control
T/C (endpoint: median survival time, dose: 50.0 mg/kg/injection, schedule: Q01DX001 (ip), vehicle: carboxymethylcellulose (CMC), higher = longer survival): 100 % of control
T/C (endpoint: median survival time, dose: 50.0 mg/kg/injection, schedule: Q06DX002 (ip), vehicle: carboxymethylcellulose (CMC), higher = longer survival): 151 % of control
T/C (endpoint: median survival time, dose: 50.0 mg/kg/injection, schedule: Q08DX002 (ip), vehicle: carboxymethylcellulose (CMC), higher = longer survival): 92 % of control
T/C (endpoint: median survival time, dose: 50.0 mg/kg/injection, schedule: Q10DX002 (ip), vehicle: carboxymethylcellulose (CMC), higher = longer survival): 103 % of control
T/C (endpoint: median survival time, dose: 50.0 mg/kg/injection, schedule: Q12DX002 (ip), vehicle: carboxymethylcellulose (CMC), higher = longer survival): 115 % of control
T/C (endpoint: median survival time, dose: 60.0 mg/kg/injection, schedule: Q11DX002 (ip), vehicle: Klucel (hydroxypropylcellulose) (HPC), higher = longer survival): 53 % of control and 113 % of control
T/C (endpoint: median survival time, dose: 60.0 mg/kg/injection, schedule: Q11DX002 (oral), vehicle: Klucel (hydroxypropylcellulose) (HPC), higher = longer survival): 90 % of control
T/C (endpoint: median survival time, dose: 75.7 mg/kg/injection, schedule: Q01DX001 (ip), vehicle: other, higher = longer survival): 124 % of control
T/C (endpoint: median survival time, dose: 80.0 mg/kg/injection, schedule: Q01DX001 (ip), vehicle: Klucel (hydroxypropylcellulose) (HPC), higher = longer survival): 112 % of control
T/C (endpoint: median survival time, dose: 90.0 mg/kg/injection, schedule: Q11DX002 (oral), vehicle: Klucel (hydroxypropylcellulose) (HPC), higher = longer survival): 75 % of control
T/C (endpoint: median survival time, dose: 100.0 mg/kg/injection, schedule: Q01DX001 (ip), vehicle: saline with Tween-80, higher = longer survival): 154 % of control
T/C (endpoint: median survival time, dose: 160.0 mg/kg/injection, schedule: Q01DX001 (ip), vehicle: Klucel (hydroxypropylcellulose) (HPC), higher = longer survival): 110 % of control
T/C (endpoint: median tumor weight (est.), dose: 4.0 mg/kg/injection, schedule: Q01DX009 (ip), vehicle: Klucel (hydroxypropylcellulose) (HPC), higher = larger tumour): 66 % of control
T/C (endpoint: median tumor weight (est.), dose: 8.0 mg/kg/injection, schedule: Q01DX009 (ip), vehicle: Klucel (hydroxypropylcellulose) (HPC), higher = larger tumour): 46 % of control
T/C (endpoint: median tumor weight (est.), dose: 12.5 mg/kg/injection, schedule: Q01DX001 (ip), vehicle: Klucel (hydroxypropylcellulose) (HPC), higher = larger tumour): 88 % of control
T/C (endpoint: median tumor weight (est.), dose: 16.0 mg/kg/injection, schedule: Q01DX009 (ip), vehicle: Klucel (hydroxypropylcellulose) (HPC), higher = larger tumour): 3 % of control
T/C (endpoint: median tumor weight (est.), dose: 19.0 mg/kg/injection, schedule: Q01DX001 (ip), vehicle: carboxymethylcellulose (CMC), higher = larger tumour): 72 % of control
T/C (endpoint: median tumor weight (est.), dose: 25.0 mg/kg/injection, schedule: Q01DX001 (ip), vehicle: Klucel (hydroxypropylcellulose) (HPC), higher = larger tumour): 48 % of control
T/C (endpoint: median tumor weight (est.), dose: 38.0 mg/kg/injection, schedule: Q01DX001 (ip), vehicle: carboxymethylcellulose (CMC), higher = larger tumour): 46 % of control
T/C (endpoint: median tumor weight (est.), dose: 57.0 mg/kg/injection, schedule: Q01DX001 (ip), vehicle: carboxymethylcellulose (CMC), higher = larger tumour): 34 % of control

CN[C@@H](C)[C@@H](O)c1ccccc1
T/C (endpoint: mean tumor weight, dose: 25.0 mg/kg/injection, schedule: Q01DX011 (ip), vehicle: carboxymethylcellulose (CMC), higher = larger tumour): 123 % of control
T/C [1]: 85 % of control
T/C (endpoint: mean tumor weight, dose: 200.0 mg/kg/injection, schedule: Q01DX011 (ip), vehicle: carboxymethylcellulose (CMC), higher = larger tumour): 72 % of control

CC1C/C=C2\CSC(NC(=O)/C3=C\N(C/C=C/C=C/C(O)CC(O)CC(=O)N3)C2=O)C(=O)O1 (stereo unspecified)
T/C (endpoint: mean tumor weight, dose: 10.6 mg/kg/injection, schedule: Q01DX011 (ip), vehicle: carboxymethylcellulose (CMC), higher = larger tumour): 88 % of control
T/C (endpoint: mean tumor weight, dose: 16.0 mg/kg/injection, schedule: Q01DX011 (ip), vehicle: carboxymethylcellulose (CMC), higher = larger tumour): 169 % of control
T/C (endpoint: mean tumor weight, dose: 24.0 mg/kg/injection, schedule: Q01DX011 (ip), vehicle: carboxymethylcellulose (CMC), higher = larger tumour): 68 % of control
T/C (endpoint: mean tumor weight, dose: 36.0 mg/kg/injection, schedule: Q01DX011 (ip), vehicle: carboxymethylcellulose (CMC), higher = larger tumour): 114 % of control

O=C(O)/C=C\C(=O)Nc1nccs1
T/C (endpoint: mean tumor weight, dose: 50.0 mg/kg/injection, schedule: Q01DX011 (ip), vehicle: carboxymethylcellulose (CMC), higher = larger tumour): 87 % of control
T/C [1]: 85 % of control

CCN=C=NCCCN(C)C
T/C (endpoint: median survival time, dose: 10.0 mg/kg/injection, schedule: Q01DX009 (ip), vehicle: saline, higher = longer survival): 106 % of control
T/C (endpoint: median survival time, dose: 20.0 mg/kg/injection, schedule: Q01DX009 (ip), vehicle: saline, higher = longer survival): 107 % of control
T/C (endpoint: median survival time, dose: 40.0 mg/kg/injection, schedule: Q01DX009 (ip), vehicle: saline, higher = longer survival): 93 % of control
T/C (endpoint: median survival time, dose: 80.0 mg/kg/injection, schedule: Q01DX009 (ip), vehicle: saline, higher = longer survival): 96 % of control

COc1cc2c[n+](C)c3c4cc5c(cc4ccc3c2cc1OC)OCO5
T/C (endpoint: median survival time, dose: 5.0 mg/kg/injection, schedule: Q01DX009 (ip), vehicle: water, higher = longer survival): 103 % of control
T/C (endpoint: median survival time, dose: 10.0 mg/kg/injection, schedule: Q01DX009 (ip), vehicle: water, higher = longer survival): 107 % of control
T/C (endpoint: median survival time, dose: 20.0 mg/kg/injection, schedule: Q01DX009 (ip), vehicle: water, higher = longer survival): 87 % of control

OCC1OC(n2cnc3c2NC=NC[C@H]3O)CC1O (stereo partly specified)
T/C (endpoint: median survival time, dose: 0.05 mg/kg/injection, schedule: Q03HX024 (ip), vehicle: saline, higher = longer survival): 110 % of control
T/C (endpoint: median survival time, dose: 0.1 mg/kg/injection, schedule: Q03HX024 (ip), vehicle: saline, higher = longer survival): 86 % of control
T/C (endpoint: median survival time, dose: 0.4 mg/kg/injection, schedule: Q03HX024 (ip), vehicle: saline, higher = longer survival): 90 % of control

OCN(CO)c1nc(N(CO)CO)nc(N(CO)CO)n1
T/C (endpoint: median survival time, dose: 6.25 mg/kg/injection, schedule: Q01DX009 (ip), vehicle: saline with Tween-80, higher = longer survival): 109 % of control
T/C (endpoint: median survival time, dose: 12.5 mg/kg/injection, schedule: Q01DX009 (ip), vehicle: saline with Tween-80, higher = longer survival): 107 % of control
T/C (endpoint: median survival time, dose: 25.0 mg/kg/injection, schedule: Q01DX009 (ip), vehicle: saline with Tween-80, higher = longer survival): 102 % of control

COc1cc(OC)cc(-c2cc(=O)c3c(OC)c(OC)c(OC)c(OC)c3o2)c1
T/C (endpoint: mean tumor weight, dose: 25.0 mg/kg/injection, schedule: Q01DX011 (sc), vehicle: steriod suspending solution, higher = larger tumour): 64 % of control
T/C (endpoint: mean tumor weight, dose: 50.0 mg/kg/injection, schedule: Q01DX011 (sc), vehicle: steriod suspending solution, higher = larger tumour): 87 % of control
T/C (endpoint: mean tumor weight, dose: 100.0 mg/kg/injection, schedule: Q01DX011 (sc), vehicle: steriod suspending solution, higher = larger tumour): 82 % of control
T/C (endpoint: mean tumor weight, dose: 200.0 mg/kg/injection, schedule: Q01DX011 (sc), vehicle: steriod suspending solution, higher = larger tumour): 81 % of control
